Experimental data as given in patent US8703764B2, “Combination therapy for dementia, depression and apathy” (priority 2003, dated 2014).

Experiments:
[1] = system: apathy in a patient with Parkinson's disease; assay: Case report Example 5: severe apathy in a patient with Parkinson's disease; assay type: in vivo, human; settings: before admission to hospital
Text: A person retired sailor developed Parkinson's disease more than 5 years before admission to hospital. After the onset of Parkinson's disease they developed decreased motivation and decreased interest. The severity of the apathy progressed to a near total lack of initiative. A trial of methylphenidate for apathy was unsuccessful. They were admitted to hospital with anxiety, severe apathy and constipation. They were unable to function at home leading to caregiver burn out.
Core symptoms of delirium were absent. A shuffling gait devoid of heel strike or toe push was observed. Arm swing was decreased. This person described decreased motivation in face of clear enjoyment of family visits and the sunshine outside. Their capacity for projective pleasure was preserved. They were satisfied with their accomplishments over their life. They felt their quality of life was reduced by their lack initiative. Objective mood and affect were flat. Thought form was marked by latency but progressed logically to a goal oriented conclusion. Thought content was free of delusions or hallucinations. Language was mildly impaired with paraphasic errors noted. Remote memories were difficult to recall and approximately correct. Their sense of humor and capacity for abstraction were preserved.
This was judged consistent with Parkinson's disease by the registered psychologist.
They could walk four lengths of the hallway. […]

[2] = system: patient with depressed mood, lack of pleasure and absent initiative; assay: Case report Example 6: depressed mood, lack of pleasure and absent initiative in a retired nurse; assay type: in vivo, human
Experimental: A 75 year retired nurse lived independently in the community until 2 months prior to admission.
Moclobemide was commenced at 200 mg. daily on day 4, increased to 300 mg. daily and day 6 and continued at 300 mg. daily.
Risperidone was commenced at 0.5 mg daily on day 7, discontinued on day 14 then restarted at 0.5 mg daily alternating with 0.25 mg. daily and continued as such.

[3] = system: patient with early onset Alzheimer's disease; assay: Case report Example 4: patient with early onset Alzheimer's disease, anxiety and depressed mood; settings: for adverse effect leading to discontinuation: human, in vivo

COC(=O)C(c1ccccc1)C1CCCCN1 (stereo not drawn) [methylphenidate]
trial for apathy [1]: unsuccessful

O=C(NCCN1CCOCC1)c1ccc(Cl)cc1 [moclobemide, p-chloro-N-(2-morpholinoethyl) benzamide]
late afternoon quality of mood and mobility of affect ([2]; by Day 6, moclobemide 200 mg daily from day 4, 300 mg daily from day 6, before risperidone): improved

Cc1nc2n(c(=O)c1CCN1CCC(c3noc4cc(F)ccc34)CC1)CCCC2 [risperidone, 3-[2-[4-(6-fluoro-1,2-benzisoxazol-3-yl)piperidino]ethyl]-2-methyl-6,7,8,9-tetrahydro-4H-pyrido-[1,2-a]pyrimidin-4-one]
extrapyramidal side effects ([2]; shortly after Day 13, risperidone 0.5 mg daily): mild extrapyramidal symptoms emerged
adverse effect leading to discontinuation [3]: emergence of dystonia

COc1ccc(C(CN(C)C)C2(O)CCCCC2)cc1 (stereo not drawn) [venlafaxine]
adverse effect leading to discontinuation [3]: excessive sweating
depressed mood ([3]; venlafaxine 150 mg daily, donepezil 10 mg daily commenced): responded
